Data taken from patent US8338565B2, “Macrocyclic compounds for inhibition of tumor necrosis factor alpha” (Ensemble Therapeutics Corporation, priority 2008, dated 2012).
Numbered stars: 1 amine (or outer) side, 2 acyl side, 3 side chain; on linkers, the order of the positions; unused ones are H or OH. Bridge positions count the residues as written; N and C are the ends. Square brackets hold non-standard residues; d marks the D form. Peptide text beside a SMILES is read from it. Bip = N[C@@H](Cc1ccc(-c2ccccc2)cc1)C(=O)O; Phe(4-NH2) = Nc1ccc(C[C@H](N)C(=O)O)cc1; d(hPhe) = N[C@H](CCc1ccccc1)C(=O)O; Suc = O=C(CCC(=O)[*:2])[*:1]

System: rat paw edema model
Assay: Rat paw edema model (carrageenan), anti-inflammatory activity
Format: in vivo, Sprague-Dawley (SD) rats

Structure (SMILES): O=C1CCC(=O)N[C@H](CCc2ccccc2)C(=O)N[C@@H](Cc2ccc(-c3ccccc3)cc2)C(=O)N[C@H](Cc2ccccc2)C(=O)N[C@H](C(=O)N[C@@H](Cc2ccccc2)C(=O)O)Cc2ccc(cc2)N1 [Compound 202] ([d(hPhe)][Bip][dF][Phe(4-NH2)]F-OH; linker N-4 via Suc)
- Change in Paw Volume (Table 3, 0.3 mg/kg IV, 2 h post-carrageenan): 0.42 ± 0.20 mL
- Change in Paw Volume (Table 3, 0.3 mg/kg IV, 4 h post-carrageenan): 1.01 ± 0.31 mL
- Change in Paw Volume (Table 3, 0.3 mg/kg IV, 6 h post-carrageenan): 1.16 ± 0.20 mL
- Change in Paw Volume (Table 9, 0.05 mg/kg IV, 2 h post-carrageenan): 1.20 ± 0.09 mL
- Change in Paw Volume (Table 9, 0.05 mg/kg IV, 4 h post-carrageenan): 1.56 ± 0.22 mL
- Change in Paw Volume (Table 9, 0.05 mg/kg IV, 6 h post-carrageenan): 1.67 ± 0.18 mL
- Change in Paw Volume (Table 9, 0.1 mg/kg IV, 2 h post-carrageenan): 0.99 ± 0.15 mL
- Change in Paw Volume (Table 9, 0.1 mg/kg IV, 4 h post-carrageenan): 1.41 ± 0.26 mL
- Change in Paw Volume (Table 9, 0.1 mg/kg IV, 6 h post-carrageenan): 1.62 ± 0.19 mL
- Change in Paw Volume (Table 9, 0.3 mg/kg IV, 2 h post-carrageenan): 0.70 ± 0.13 mL
- Change in Paw Volume (Table 9, 0.3 mg/kg IV, 4 h post-carrageenan): 1.09 ± 0.06 mL
- Change in Paw Volume (Table 9, 0.3 mg/kg IV, 6 h post-carrageenan): 1.15 ± 0.12 mL
- Change in Paw Volume (Table 9, 1.0 mg/kg IV, 2 h post-carrageenan): 0.60 ± 0.04 mL
- Change in Paw Volume (Table 9, 1.0 mg/kg IV, 4 h post-carrageenan): 0.98 ± 0.08 mL
- Change in Paw Volume (Table 9, 1.0 mg/kg IV, 6 h post-carrageenan): 1.14 ± 0.05 mL
- Change in Paw Volume (Table 9, 10 mg/kg PO (suspension in Vehicle A), 2 h post-carrageenan): 1.12 ± 0.15 mL
- Change in Paw Volume (Table 9, 10 mg/kg PO (suspension in Vehicle A), 4 h post-carrageenan): 1.35 ± 0.27 mL
- Change in Paw Volume (Table 9, 10 mg/kg PO (suspension in Vehicle A), 6 h post-carrageenan): 1.42 ± 0.22 mL
- Change in Paw Volume (Table 10, 0.3 mg/kg PO, 2 h post-carrageenan): 1.49 ± 0.14 mL
- Change in Paw Volume (Table 10, 0.3 mg/kg PO, 4 h post-carrageenan): 1.59 ± 0013 mL
- Change in Paw Volume (Table 10, 0.3 mg/kg PO, 6 h post-carrageenan): 1.65 ± 0.10 mL
- Change in Paw Volume (Table 10, 1.0 mg/kg PO, 2 h post-carrageenan): 1.43 ± 0.18 mL
- Change in Paw Volume (Table 10, 1.0 mg/kg PO, 4 h post-carrageenan): 1.45 ± 0.16 mL
- Change in Paw Volume (Table 10, 1.0 mg/kg PO, 6 h post-carrageenan): 1.62 ± 0.14 mL
- Change in Paw Volume (Table 10, 3.0 mg/kg PO, 4 h post-carrageenan): 1.42 ± 0.09 mL
- Change in Paw Volume (Table 10, 3.0 mg/kg PO, 6 h post-carrageenan): 1.50 ± 0.09 mL
- Change in Paw Volume (Table 10, 10 mg/kg PO, 2 h post-carrageenan): 1.17 ± 0.17 mL
- Change in Paw Volume (Table 10, 10 mg/kg PO, 4 h post-carrageenan): 1.29 ± 0.06 mL
- Change in Paw Volume (Table 10, 10 mg/kg PO, 6 h post-carrageenan): 1.51 ± 0.06 mL
